Reference: publication PMC8850458, “The AUTOTAC chemical biology platform for targeted protein degradation via the autophagy-lysosome system” (Nature Communications, 2022)
“And” between values parts separate entries of the source, which are not always exact repeats. Equal entries are not always repeated.

Experiments:
[1] = biological target: T1, mutant desminL385P (Homo sapiens, UniProt P17661, L385P); assay: WB degradation of mutant desmin in HeLa cells; type: cell-based; conditions: exogenously expressed
T1 construct: expressed in transfected cells; host or cells: HeLa, transient
Experimental: (§1) Adherent cells were washed with phosphate-buffered saline (PBS) and cell pellets were lysed in SDS-based sample buffer (277.8 mM Tris-HCI, pH 6.8, 4.4% LDS, 44.4% (v/v) glycerol) containing beta-mercaptoethanol. Alternatively, cell pellets or protein supernatants were lysed in 5X Laemmli sample buffer. Whole-cell lysates were separated using SDS-PAGE, and transferred onto polyvinyllidene difluoride membranes at 100 V for 2 h at 4 °C. The membrane was incubated with a blocking solution consisting 4% skim milk in PBS solution for 30 min at room temperature and incubated with primary antibodies overnight, followed by incubation with host-specific HRP-conjugated secondary antibodies (1:10000 dilution). For signal detection, the membrane was developed with a mixture of ECL solution (Thermo Fisher Scientific) using X-ray films. Densitometry of developed bands was measured and analyzed with ImageJ (NIH, Bethesda).
(§2) Supplementary Fig. 5. AUTOTACs selectively target pathological aggregation-prone proteins for autophagic degradation. (a) WB in HEK293T cells treated with PBA-1105 (1 μM) and MG132 (1 μM, 24 h) at the indicated time points. (b) ICC of HeLa cells treated with the indicated compounds (1 μM, 24 h). Scale bar, 10 μm. (c) WB in HEK293T cells treated with PBA-1105 (500 nM, 24 h) and MG132 (1 μM, 24 h) under siRNA-mediated knockdown of p62 or ATG7 (20 nM, 48 h). (d) ICC in HeLa cells transiently expressing WIPI2-GFP and treated with Anle138b-F105 (1 μM, 24 h). Scale bar, 10 μm. (e) ICC in HeLa cells treated with […]
(§3) nM, 24 h). (g, h) WB in HeLa cells transiently expressing wild type or mutant (L385P) desmin-flag with LacZ-myc and treated with PBA-1105, PBA-1105b or Anle138b-F105 at the […]

[2] = biological target: T2, wild-type desmin (Homo sapiens, UniProt P17661); assay: WB degradation of wild-type desmin in HeLa cells; type: cell-based; conditions: exogenously expressed
T2 construct: expressed in transfected cells; host or cells: HeLa, transient
Experimental: as §1, §2, §3

[3] = biological target: tauP301L (Homo sapiens, UniProt P10636, P618L); assay: WB degradation of tauP301L in SH-SY5Y-tauP301L cells; type: cell-based; conditions: SH-SY5Y-tauP301L cells
Experimental: as §1

[4] = biological target: T3, p62 (Homo sapiens, UniProt Q13501); assay: In vitro p62 oligomerization assay; type: biochemical; conditions: HEK293T lysate
T3 construct: expressed in transfected cells; host or cells: HEK293T, transient; whole lysate used
Experimental: HEK293T cells were transiently transfected with a plasmid encoding p62-myc/his fusion proteins. Cells were resuspended in lysis buffer [50 mM HEPES (pH 7.4), 0.15 M KCl, 0.1% Nonidet P-40), 10% glycerol, containing a mixture of protease inhibitors and phosphatase inhibitor (Abcam)]. To lyse the cells, 10 cycles of freezing and thawing was done, followed by centrifugation at 13,000 × g for 20 min at 4 °C. Using a BCA assay, the protein concentration of the supernatant was measured. A total of 1 μg of protein was incubated with 1 mM of p62-ZZ ligands in the presence of 100 μM bestatin (Enzo) at room temperature for 2 h. After incubation, each sample was mixed with non-reducing 4X LDS sample buffer, heated at 95 °C for 10 min, and resolved using 4–20% gradient SDS-PAGE (Bio-Rad). To monitor the conversion of p62 monomers into oligomers or aggregates, IB assay was performed using anti-myc antibody.

[5] = tested on: Ub^+ and p62^+ puncta; assay: ICC of Ub (FK2) and p62 puncta in HeLa cells; type: cell-based; conditions: 1 μM 24 h, autophagy inhibition (HCQ)
Experimental: Fig. 4 Targeted autophagic delivery and degradation of misfolded protein cargoes using AUTOTACs with aggregate-binding warhead. a A model illustrating the mode of action of aggregate-targeting AUTOTAC. b Chemical structures of PBA-1105, PBA-1106, Anle138b-F105 and PBA-1105b. c In vitro p62 oligomerization assay in HEK293T cells incubated with the indicated compounds in (b). d WB in HEK293T cells treated with MG132 (1 μM, 24 h), HCQ (10 μM, 24 h), PBA-1105, YTK-1105, and PBA (1 μM, 24 h). e Identical to (d), but with Anle-F105. f ICC of HeLa cells treated with HCQ (10 μM, 24 h), MG132 (2 μM, 18 h) or both in the presence of PBA-1106, YOK-1106 or PBA (1 μM, 24 h). Scale bar, 10 μm. g Quantification of (f) (n = 3, 50 cells). h ICC of HeLa cells treated with Anle138b-F105 (1 μM, 24 h). Scale bar, 10 μm. i Quantification of (h) (n = 3, 50 cells). When indicated, n = 3 biologically independent experiments each counting 50 cells. Data are presented as mean values ± SD where relevant. P-values (from a two-sided unpaired t test): ***P < 7.66E−05. Source data are provided with this paper.
(§4) Cells were cultured on coverslips coated with poly-L-lysine (Sigma) to observe cellular localization of proteins. Using 4% paraformaldehyde in PBS (pH 7.4), the cells were fixed for 15 min at room temperature and washed three times for 5 min with PBS. After fixing, the cells were permeabilized with 0.5% Triton X-100 in PBS solution for 15 min and washed three times with PBS for 5 min. The cells were blocked containing 2% BSA in PBS solution for 1 h at room temperature. Subsequently, the cells were incubated with primary antibody diluted in 2% BSA/PBS solution overnight at 4 °C, followed by washing the cells three times for 10 min with PBS and incubated with Alexa Fluor-conjugated secondary antibody diluted in 2% BSA/PBS for 30 min at room temperature. Using a DAPI-containing mounting medium (Vector Laboratories), the coverslips were mounted on glass slides. Confocal images were taken by laser scanning confocal microscope 510 Meta (Zeiss) and analyzed by Zeiss LSM Image Browser (ver. 4.2.0.121). […] Quantification results are shown as mean ± S.D. or S.E.M. of three independent experiments

[6] = biological target: T3, p62; assay: In vitro pulldown assay with biotinylated p62 ligands; type: binding; conditions: biotinylated ligand, HEK293T extracts
Experimental: A set of synthetic 12-mer peptides corresponding to the N-terminal sequences of the V-BiP (V[19]-[…]-biotin) and V-RGS4 (V^2-[…]-biotin) was C-terminally biotin-conjugated. Alternatively, biotinylated versions of YOK-1304, YT-8-8, YTK-1105, YOK-2204, and PBA were synthesized. To cross-link the above peptides with resin beads, biotin-conjugated peptides, and small molecule were mixed with high-capacity streptavidin agarose resin (Thermo Fisher Scientific) at a ratio of 0.5 mg of peptide per 1 mL of settled resin and incubated on a rotator at 4 °C overnight. After washing five times with PBS, the peptide/small molecule-bead conjugates were diluted with PBS at a 1:1 ratio. To prepare protein extracts, cells were collected by centrifugation and lysed by freezing and thawing at least 10 times in hypotonic buffer [10 mM KCl, 1.5 mM MgCl2, and 10 mM HEPES (pH 7.9)] with a protease inhibitor mix (Sigma). After centrifugation at 15,000 rpm 4 °C for 15 min, proteins were quantified using a BCA protein assay kit (Thermo Fisher Scientific). Total protein (200 μg) diluted in 300 μL of binding buffer [0.05% Tween-20, 10% glycerol, 0.2 M KCl, and 20 mM HEPES (pH 7.9)] were mixed with 50 μL of peptide/small molecule-bead resin and incubated at 4 °C for 2 h on a rotator. The protein-bound beads were collected by centrifugation at 2400 × g for 3 min and washed five times with binding buffer. The beads were resuspended in 25 μL of SDS sample buffer, heated at 95 °C for 5 min, and subjected to SDS/PAGE and immunoblotting.

[7] = tested on: p62 and LC3 punctate structures; assay: ICC of p62 and LC3 puncta formation and co-localization in HeLa cells; type: cell-based; conditions: 2.5 μM, 24 h
Experimental: as §4

[8] = tested on: p62-positive and WIPI2-positive punctate structures; assay: ICC of WIPI2-p62 co-localization in HeLa cells; type: cell-based
Experimental: as §4
Supplementary Fig. 2. Characterization of p62-ZZ ligands (a, c, e) 3-D modeling of p62 […]
μM, 6 h). (m) Quantification of l for co-localization (n=3, 50 cells). Scale bar, 10 µm. (n) […]

[9] = tested on: autophagic turnover of p62 and LC3; assay: Autophagic flux assay in HeLa cells with or without HCQ; type: cell-based; conditions: 2.5 μM, 24 h, with or without HCQ 10 µM 24 h
Experimental: Fig. 1 Nt-Arg-mimicking p62-ZZ ligands activate p62-dependent selective macroautophagy. a A model illustrating the mode of action of autophagy-targeting ligands. b Chemical structures of autophagy-targeting ligands. c In vitro pulldown assay in HEK293T cells of the 12-mer V-BiP peptide or autophagy-targeting ligands. d In vitro p62 oligomerization assay in HEK293T cells incubated with the p62-ZZ ligands in (b). e ICC of HeLa cells treated with p62-ZZ ligands in (b) (2.5 μM, 24 h). Scale bar, 10 μm. f, g Quantification of (e) for puncta formation and co-localization, respectively (n = 3 biologically independent experiments each counting 50 cells). h A schematic/formulae for autophagy flux index. i Autophagic flux assay in HeLa cells treated with YOK-1304 or YTK-105 (2.5 μM, 24 h) in the presence or absence of HCQ (10 µM, 24 h). Data are presented as mean values ± SD where relevant. P-values (from a two-sided unpaired t test): ***P < 0.000956 (for p62 punctate formation), ***P < 0.000539 (for LC3 punctate formation), ***P < 0.000925 (for p62-LC3 co-localization). Source data are provided with this paper. TEXT PRINTED IN THE PICTURE: (i) YOK 1304: Normalized p62 A.F. index: 2.8; Normalized LC3 II/I A.F. index: 4.2 | (i) YTK 105: Normalized p62 A.F. index: 4.6; Normalized LC3 II/I A.F. index: 11.2
as §1

[10] = biological target: T4, methionine aminopeptidase 2 (MetAP2) (Homo sapiens, UniProt P50579); assay: Western blot degradation of MetAP2; type: cell-based; conditions: 293T, 24 h
T4 construct: Targeted autophagic degradation of endogenous oncoproteins by AUTOTAC; endogenous in cells; host or cells: HEK293 / HEK293T, U87-MG
Experimental: as §1

[11] = tested on: U87-MG glioblastoma cells; assay: Wound healing assay in U87-MG cells; type: cell-based; parameters: wound area, single experiment / wound area, Average: unit not given here; conditions: Fig. S4j
Experimental: To analyze cell migration in two dimensions, U-87 MG or ACHN cells were plated to a monolayer. Cells were scratched with a sterile 10 μl pipette tip and the debris was removed using medium. Cells were treated with compounds and incubated for different time to monitor cell behavior. Photographs were obtained using a microscope at different time point.

[12] = HeLa expressing WIPI2-GFP, 2.5 μM, 6 h
[13] = HeLa, endogenous WIPI2, 2.5 μM, 24 h

tauP301L, sequence (P10636 1-441 isoform P10636-8 P301L): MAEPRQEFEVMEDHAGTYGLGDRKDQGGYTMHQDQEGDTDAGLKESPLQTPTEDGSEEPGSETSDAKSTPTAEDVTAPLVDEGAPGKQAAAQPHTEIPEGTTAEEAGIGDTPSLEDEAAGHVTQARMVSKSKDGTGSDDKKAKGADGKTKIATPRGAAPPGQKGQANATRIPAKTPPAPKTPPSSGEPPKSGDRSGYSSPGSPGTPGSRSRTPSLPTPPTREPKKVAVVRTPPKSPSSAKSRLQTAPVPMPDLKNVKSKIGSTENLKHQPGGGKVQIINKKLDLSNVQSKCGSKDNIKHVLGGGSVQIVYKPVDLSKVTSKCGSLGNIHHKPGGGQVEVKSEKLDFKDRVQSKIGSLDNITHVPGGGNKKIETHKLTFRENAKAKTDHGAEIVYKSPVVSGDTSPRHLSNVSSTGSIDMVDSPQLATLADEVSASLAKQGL
T4 sequence (P50579 whole entry): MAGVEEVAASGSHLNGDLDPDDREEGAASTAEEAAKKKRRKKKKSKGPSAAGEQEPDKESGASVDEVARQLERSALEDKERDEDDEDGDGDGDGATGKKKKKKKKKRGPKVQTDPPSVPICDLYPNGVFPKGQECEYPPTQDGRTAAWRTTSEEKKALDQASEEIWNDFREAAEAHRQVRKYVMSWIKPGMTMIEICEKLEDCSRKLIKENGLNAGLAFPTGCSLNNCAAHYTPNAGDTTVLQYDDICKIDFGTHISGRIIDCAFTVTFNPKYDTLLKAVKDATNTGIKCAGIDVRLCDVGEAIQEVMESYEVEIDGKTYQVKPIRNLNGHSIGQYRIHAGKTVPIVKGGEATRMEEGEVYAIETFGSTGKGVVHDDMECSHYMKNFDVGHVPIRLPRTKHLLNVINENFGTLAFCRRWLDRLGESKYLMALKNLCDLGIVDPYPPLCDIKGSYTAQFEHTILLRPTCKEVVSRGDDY
T3 sequence (Q13501 whole entry): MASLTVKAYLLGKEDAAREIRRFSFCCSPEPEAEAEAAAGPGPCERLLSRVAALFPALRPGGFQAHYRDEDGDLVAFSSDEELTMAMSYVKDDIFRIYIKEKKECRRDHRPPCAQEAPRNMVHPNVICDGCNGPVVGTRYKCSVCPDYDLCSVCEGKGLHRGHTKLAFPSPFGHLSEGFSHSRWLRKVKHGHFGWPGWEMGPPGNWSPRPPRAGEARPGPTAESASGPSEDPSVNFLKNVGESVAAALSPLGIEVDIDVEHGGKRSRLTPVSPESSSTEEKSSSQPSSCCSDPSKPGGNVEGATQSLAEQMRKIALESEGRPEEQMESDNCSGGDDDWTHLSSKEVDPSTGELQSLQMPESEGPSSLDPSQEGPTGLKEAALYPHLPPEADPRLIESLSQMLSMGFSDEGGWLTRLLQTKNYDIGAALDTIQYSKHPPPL
T1 sequence (P17661 whole entry L385P): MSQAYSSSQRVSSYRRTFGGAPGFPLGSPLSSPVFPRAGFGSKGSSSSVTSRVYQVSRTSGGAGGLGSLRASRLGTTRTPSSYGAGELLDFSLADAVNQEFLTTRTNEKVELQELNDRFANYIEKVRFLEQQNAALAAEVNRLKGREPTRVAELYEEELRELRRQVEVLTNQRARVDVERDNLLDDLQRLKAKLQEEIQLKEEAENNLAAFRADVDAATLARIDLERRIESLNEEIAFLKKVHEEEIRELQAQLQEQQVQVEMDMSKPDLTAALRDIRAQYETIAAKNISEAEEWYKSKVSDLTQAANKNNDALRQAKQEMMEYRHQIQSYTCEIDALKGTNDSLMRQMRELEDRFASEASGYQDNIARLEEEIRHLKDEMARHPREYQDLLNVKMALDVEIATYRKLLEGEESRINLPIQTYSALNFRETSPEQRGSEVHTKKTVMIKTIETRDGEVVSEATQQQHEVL
T2 sequence (P17661 whole entry): as the sequence (P17661 whole entry L385P) above, with P385L counted along it

Structure (SMILES): O=C(CCCc1ccccc1)NCCOCCOCCOCCOCCOCCOCCOCCNCc1ccc(OCc2ccccc2)c(OCc2ccccc2)c1 [PBA-1105b]
- degradation of mutant desminL385P [1]: induced the degradation
- degradation of wild-type desmin [2]: not wild-type desmin
- degradation of tauP301L [3]: at a similar efficiency as the original PBA-1105

Structure (SMILES): O=C(CCCc1ccccc1)NCCOCCOCCOCCNC[C@@H](O)COc1ccc(OCc2ccccc2)c(OCc2ccccc2)c1 [PBA-1106]
- p62 self-oligomerization [4]: triggered its self-oligomerization
- p62 puncta structures (per cell) [5]: 14 ± 4.2
- DC50 [3]: 1 to 10 nM
- Dmax,24 hr of tauP301L degradation [3]: 100 nM

Structure (SMILES): OCCNCc1cccc(OCc2ccccc2)c1 [YTK-105]
- binding of p62 in pulldown [6]: bound
- LC3 puncta formation, AVG of cells of 50 [7]: 42.3333
- LC3 puncta formation, percentage AVG [7]: 84.6667%
- p62-LC3 colocalization, AVG of cells of 50 [7]: 45
- p62-LC3 colocalization, percentage AVG [7]: 90%
- p62 puncta formation, AVG of cells of 50 [7]: 43.6667
- p62 puncta formation, percentage AVG [7]: 87.3333%
- LC3 puncta formation, cells of 50 cells counted ([7]; single experiments): 38 and 42 and 47
- p62-LC3 colocalization, cells of 50 cells counted ([7]; single experiments): 46 and 43
- p62 puncta formation, cells of 50 cells counted ([7]; single experiments): 43 and 41 and 47
- WIPI2-GFP-p62 colocalization, AVG of cells of 50 [8, 12]: 25
- WIPI2-GFP-p62 colocalization, percentage AVG [8, 12]: 50%
- WIPI2-GFP-p62 colocalization, cells of 50 cells counted ([8]; HeLa expressing WIPI2-GFP, 2.5 μM, 6 h, single experiments): 31 and 18 and 26
- WIPI2-p62 colocalization, AVG of cells of 50 [8, 13]: 40.6667
- WIPI2-p62 colocalization, percentage AVG [8, 13]: 81.3333%
- WIPI2-p62 colocalization, cells of 50 cells counted ([8]; HeLa, endogenous WIPI2, 2.5 μM, 24 h, single experiments): 48 and 33 and 41
- Normalized LC3 II/I A.F. index [9]: 11.2
- Normalized p62 A.F. index [9]: 4.6
- MetAP2 normalized to control, AVG % ([10]; 2.5uM): 101.594%
- MetAP2 normalized to control, AVG % ([10]; 10uM): 142.103%
- wound area, single experiment ([11]; 0h): 1132236 and 1199923 and 1182736
- wound area, Average % ([11]; 0h (reference = 100)): 100%
- wound area, Average ([11]; 0h, con 1278325): 1171632
- wound area, single experiment ([11]; 4h): 859025 and 791115 and 860952
- wound area, Average ([11]; 4h, con 815372): 837031
- wound area, Average % ([11]; 4h, relative to 0h, con 63.7844): 71.4415%
- wound area, single experiment ([11]; 12h): 450234 and 520420 and 504520
- wound area, Average ([11]; 12h, con 627015): 491725
- wound area, Average % ([11]; 12h, relative to 0h, con 49.0497): 41.9692%
- wound area, single experiment ([11]; 24h): 288632 and 435340 and 335340
- wound area, Average ([11]; 24h, con 144265): 353104
- wound area, Average % ([11]; 24h, relative to 0h, con 11.2855): 30.1378%
